The record followed here is PubChem BioAssay AID608 (Sanford-Burnham Center for Chemical Genomics, 2007).

Structures are written as SMILES. Values joined by “and” are separate entries in the source; they are usually repeats but may differ in a detail not shown here. Equal entries are not always repeated. Active and inactive are the calls of the source. No rule for the calls is given here.

The target of this experiment is Peptidyl-prolyl cis-trans isomerase FKBP1A (Homo sapiens) (UniProt P62942). As to the kind of experiment: FKBP12 binders, biophysical, NMR detection (AID 608). To be noted: NMR binding, purified FKBP12.
Sequence of Peptidyl-prolyl cis-trans isomerase FKBP1A (Homo sapiens) (P62942 whole entry, looked up): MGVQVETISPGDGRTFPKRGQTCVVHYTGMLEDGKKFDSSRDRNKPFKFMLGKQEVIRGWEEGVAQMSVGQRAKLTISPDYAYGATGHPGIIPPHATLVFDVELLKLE
For orientation: Kd means the free concentration of one partner at which half of the binding sites on the other are occupied at equilibrium, for simple one-to-one binding. Turning to `C#CCCCCCCCCCCCc1ccco1`, the Kd was > 4 mM (inactive).

As for `O=S1(=O)CCC(N2CCCCC2)C1` (configuration not stated), the Kd is > 4 mM (inactive).

Regarding `O=C(O)c1ccccc1C(=O)NCC1CCCO1` (configuration not stated), the Kd is > 4 mM (inactive).

Regarding `C=C1CCC2C(CC2(C)C)C(=O)CCC1O` (configuration not stated), the Kd is > 4 mM (inactive).

Take `Cc1cc(-c2ccc(Cl)cc2)n2nc(N)nc2n1`: the Kd was > 4 mM (inactive).

On to `O=C(NCc1ccco1)c1ccc(Br)s1`, for which the Kd is > 4 mM (inactive).

In the case of `Nc1ccc2nccnc2c1`, the Kd is > 4 mM (inactive).

With `CC(CC(=O)O)n1cccn1` (configuration not stated), the Kd is > 4 mM (inactive).

As to `CNC(=O)c1c(O)c2ccccc2[nH]c1=O`, the Kd was > 4 mM (inactive).

`COc1ccc2c(c1)OC/C(=C/c1ccc(OC)c(OC)c1)C2=O`: the Kd is > 4 mM (inactive).

For the molecule `COc1ccccc1NC(=O)c1ccc(Br)o1`, the Kd is > 4 mM (inactive).

For `Cc1ccc(N2CCN(C(=O)c3ccccc3)CC2)c(C)c1`, the Kd is > 4 mM (inactive).

As to `Cc1ccc(NS(=O)(=O)c2ccc(OCC(=O)N3CCOCC3)cc2)cc1`, the Kd result was “inactive”.

For `Cc1ccc(NC(=O)C2CCCNC2=O)nc1` (configuration not stated), the Kd was > 4 mM (inactive).

Turning to `CC(C)(O)[C@@H]1[C@H]2OC(=O)[C@@H]1[C@]1(O)C[C@H]3O[C@]34C(=O)O[C@H]2[C@]14C`, the Kd is > 4 mM (inactive).

As for `O=C(O[C@@H]1Cc2c(O)cc(O)cc2O[C@@H]1c1cc(O)c(O)c(O)c1-c1c([C@H]2Oc3cc(O)cc(O)c3C[C@H]2O)cc(O)c(O)c1O)c1cc(O)c(O)c(O)c1`, the Kd is > 4 mM (inactive).

As to `O=c1ccc2nc3ccccc3c(=O)n2[nH]1`, the Kd was > 4 mM (inactive).

With `CSc1nnc2ccc(-c3cccnc3)nn12`, the Kd is > 4 mM (inactive).

`Cc1nnc(N2CCN(Cc3ccccc3)CC2)[nH]c1=O`: the Kd is > 4 mM (inactive).

For `Cc1nc2nc(Cc3ccccc3)nn2c(C)c1Cl`, the Kd was > 4 mM (inactive).

As to `COc1ccc(C(N)=O)cc1N`, the Kd was > 4 mM (inactive).

Regarding `O=C(c1ccccc1)N1CCNCC1`, the Kd is > 4 mM (inactive).

Turning to `Cc1nc(-c2cnccn2)sc1C(=O)O`, the Kd was > 4 mM (inactive).

`O=C(NC1CCS(=O)(=O)C1)C1CCCCC1` (configuration not stated): the Kd was > 4 mM (inactive).

On to `O=C1CSC(=Nc2cc(Cl)ccc2Cl)N1`, for which the Kd is > 4 mM (inactive).

As for `COC(=O)[C@H]1[C@H]2C[C@H]3c4[nH]c5ccccc5c4CCN3C[C@H]2CC[C@@H]1O`, the Kd was > 4 mM (inactive).

For the molecule `COc1ccc2c(=O)c(OC)c(-c3ccccc3)oc2c1`, the Kd is > 4 mM (inactive).

As for `O[C@H]1C=C2CCN3Cc4cc5c(cc4C(C23)[C@@H]1O)OCO5` (some centres not stated), the Kd was > 4 mM (inactive).

Regarding `Cc1ncoc1C(=O)Nc1ccccc1C(N)=O`, the Kd is > 4 mM (inactive).

`OCC12COC3c4ccccc4C(OC1)N32` (configuration not stated): the Kd was > 4 mM (inactive).

For the molecule `O=C1NC(=S)N/C1=C\c1ccccc1F`, the Kd was > 4 mM (inactive).

With `CC(=O)c1ccc(NC(=O)c2ocnc2C)cc1`, the Kd was > 4 mM (inactive).

On to `OCC1CNc2ccccc2O1` (configuration not stated), for which the Kd is > 4 mM (inactive).

On to `Cc1cc(NC(=O)c2cccc(N3C(=O)CCC3=O)c2)no1`, for which the Kd was > 4 mM (inactive).

For the molecule `Cc1cc(NC(=O)CSc2nncn2C)no1`, the Kd is > 4 mM (inactive).

As for `Cc1cc(C(=O)NCc2ccccc2Br)no1`, the Kd is > 4 mM (inactive).

`O=C(O)Cc1nc(-c2ccncc2)n[nH]1`: the Kd is > 4 mM (inactive).

As to `NC1=NC(=O)C(CC(=O)Nc2ccccc2F)S1` (configuration not stated), the Kd was > 4 mM (inactive).

As to `Cc1ccc2c(C)c(C(=O)Nc3nnc(C)s3)oc2c1`, the Kd was > 4 mM (inactive).

In the case of `CCC1=Nc2ccccc2-c2nnc(SC)nc2O1`, the Kd was > 4 mM (inactive).

As to `CC(=O)Nc1cccc(NC(=O)c2ccco2)c1`, the Kd is > 4 mM (inactive).

In the case of `Cc1nnsc1C(=O)Nc1ccccc1[N+](=O)[O-]`, the Kd is > 4 mM (inactive).

As for `C=C1C([C@]2(C)C(CC(=O)OC)[C@@](C)(COC(C)=O)OC(=O)C[C@@H]2OC(C)=O)[C@@H](OC=O)[C@H](OC(=O)C(O)C(C)CC)[C@@]2(C)[C@H](c3ccoc3)CC(=O)C12O` (some centres not stated), the Kd is > 4 mM (inactive).

In the case of `CC12CCCC(O)(C1)C1CC(C)(C)C1CC2` (configuration not stated), the Kd is > 4 mM (inactive).

Take `O=C1c2ccccc2C(=O)N1Cc1ccco1`: the Kd is > 4 mM (inactive).

On to `O=C1CC(c2c[nH]c3ccccc23)C(=O)N1` (configuration not stated), for which the Kd was > 4 mM (inactive).

For `COc1ccc(NC(=O)CCCC(=O)O)c(OC)c1`, the Kd is > 4 mM (inactive).

Consider `COc1ccc(-c2cc(=O)c3cc(OC)ccc3o2)cc1`, for which the Kd is > 4 mM (inactive).

As to `Cc1nn(-c2ccccc2)nc1CO`, the Kd was > 4 mM (inactive).

Take `CC(C)=CCC1=C(O)c2ccccc2C(=O)C1=O`: the Kd was > 4 mM (inactive).

In the case of `NCc1ccccc1N1CCOCC1`, the Kd is > 4 mM (inactive).

Regarding `OCCNC(=S)Nc1ccc(F)cc1`, the Kd is > 4 mM (inactive).

Regarding `O=c1c(O)cc([C@H]2Oc3cc(O)cc(O)c3C[C@H]2O)cc2c([C@H]3Oc4cc(O)cc(O)c4C[C@H]3O)cc(O)c(O)c12`, the Kd was > 4 mM (inactive).

In the case of `CC(=O)Nc1nnc(-c2ccccc2S(C)(=O)=O)o1`, the Kd was > 4 mM (inactive).

`O=c1c[n+]([O-])c2ccccc2n1OCc1ccccc1`: the Kd is > 4 mM (inactive).

Take `COc1ccc2c(c1O)-c1c(OC)c(OC)cc3c1[C@H](C2)N(C)CC3`: the Kd is > 4 mM (inactive).

Regarding `CN1CCC(N2CCCC(C(N)=O)C2)CC1` (configuration not stated), the Kd is > 4 mM (inactive).

As for `NCc1csc(-c2ccccc2)n1`, the Kd was > 4 mM (inactive).

For the molecule `O=S1(=O)CCC(NC(=S)Nc2ccccn2)C1` (configuration not stated), the Kd is > 4 mM (inactive).

In the case of `COc1c(C(=O)N2CCCC2)ccc2ccccc12`, the Kd is > 4 mM (inactive).

As for `CC(=O)c1cc(C(N)=O)c(=S)[nH]c1C`, the Kd was > 4 mM (inactive).

`CCc1noc(C)c1C(=O)N1CCOCC1`: the Kd is > 4 mM (inactive).

For the molecule `OCc1ncoc1-c1ccccc1`, the Kd is > 4 mM (inactive).

`O=C1C[C@@H](c2ccccc2)Oc2cc(O)cc(O)c21`: the Kd was > 4 mM (inactive).

With `Cc1ncc(C(=O)O)c(-c2ccccc2)n1`, the Kd was > 4 mM (inactive).

Regarding `CCOc1ccc(-c2c(=O)n(O)c3ccccc3[n+]2[O-])cc1`, the Kd is > 4 mM (inactive).

Take `O=S(=O)(Nc1ccc(Cl)c(Cl)c1)N1CCOCC1`: the Kd result is “inactive”.

Regarding `O=C(O)CCNc1n[nH]c(=O)[nH]c1=O`, the Kd was > 4 mM (inactive).

With `NC(=O)C1CCN(C(=O)Nc2ccccc2)CC1`, the Kd is > 4 mM (inactive).

As to `Cn1ncc2c(=O)n(CC(=O)c3ccccc3)cnc21`, the Kd was > 4 mM (inactive).

Turning to `Cc1cc(C(=O)NCc2cccnc2)cs1`, the Kd is > 4 mM (inactive).

For `CC(=O)O[C@@H]1CC2C(C)(C)[C@H](O)C=C[C@]2(C)C2CC[C@@]3(C)[C@H](c4ccoc4)OC(=O)C4OC43[C@@]21C` (some centres not stated), the Kd was > 4 mM (inactive).

Take `O=C(O)CCC(=O)c1c[nH]c2ccccc12`: the Kd was > 4 mM (inactive).

Consider `COC(=O)c1cn(C(=O)OC)c2ccccc12`, for which the Kd is > 4 mM (inactive).

For the molecule `c1cncc(Cn2cccc2)c1`, the Kd is > 4 mM (inactive).

For `Nc1ncnc2c1ncn2CCN1CCOCC1`, the Kd was > 4 mM (inactive).

Turning to `O=C(O)c1ccc2ncccc2c1`, the Kd was > 4 mM (inactive).

As to `CC(=O)c1c(C)nn(CC(=O)O)c1C`, the Kd was > 4 mM (inactive).

As to `O=C(Nn1cnnc1)c1csc2ccccc12`, the Kd was > 4 mM (inactive).

Take `O=S(=O)(N1CCCCC1)n1nnc2ccccc21`: the dissociation constant (Kd) is > 4 mM (inactive) and 385 µM.

With `Cn1c(CNc2ccccc2)cc(=O)n(C)c1=O`, the Kd was > 4 mM (inactive).

`COc1ccc(N2C(=O)CCC2=O)c(OC)c1`: the Kd was > 4 mM (inactive).

Regarding `OCCNc1ccccn1`, the Kd was > 4 mM (inactive).

In the case of `Cc1nn2c(-c3ccco3)nnc2c2ccccc12`, the Kd is > 4 mM (inactive).

Regarding `O=C(NCc1ccccn1)c1ccc(Br)s1`, the Kd is > 4 mM (inactive).

Consider `CSc1ccccc1NC(=O)c1ccncc1`, for which the Kd was > 4 mM (inactive).

Turning to `Nc1scc[n+]1CC(=O)[O-]`, the Kd was > 4 mM (inactive).

For `CN(C)N1C(=O)c2ccccc2C1=O`, the Kd was > 4 mM (inactive).

Take `Cc1ccc(S(=O)(=O)CC(=O)N(C)C)cc1`: the Kd was > 4 mM (inactive).

On to `CN(C)C(=O)CSc1nc(N)cc(=O)[nH]1`, for which the Kd was > 4 mM (inactive).

In the case of `S=C(c1ccc(N2CCOCC2)cc1)N1CCCCC1`, the Kd is > 4 mM (inactive).

With `CCc1sc(C(=O)NC)cc1Br`, the Kd is > 4 mM (inactive).

Take `CSc1ccccc1C(=O)N1CCOCC1`: the Kd is > 4 mM (inactive).

For the molecule `OCc1ccc(-n2cncn2)cc1`, the Kd is > 4 mM (inactive).

As to `O=C(NS(=O)(=O)c1ccccc1)c1ccccc1F`, the Kd was > 4 mM (inactive).

In the case of `COc1ccc(N/C(N)=N\c2nc(C)cc(C)n2)cc1`, the Kd is > 4 mM (inactive).

For the molecule `Cc1nnc(Nc2ccc(S(N)(=O)=O)cc2)[nH]c1=O`, the Kd was > 4 mM (inactive).

`c1ccc(CCN2CCN(CCc3ccccn3)CC2)nc1`: the Kd is > 4 mM (inactive).

Turning to `CS(=O)(=O)Nc1cc2c3c(c1)CCN3C(=O)CC2`, the Kd is > 4 mM (inactive).

Regarding `COc1cc(N)ccc1NC(=O)c1cccs1`, the Kd is > 4 mM (inactive).

For `O=C(O)c1cccc2c1OCCCO2`, the Kd was > 4 mM (inactive).

With `CC(=O)O[C@@H]1c2c(ccc3ccc(=O)oc23)OC(C)(C)[C@@H]1OC(=O)CC(C)C`, the Kd is > 4 mM (inactive).
